# Source: patent US11472791B2 (Incyte Corporation, priority 2019, dated 2022)
# Target: CDK2/Cyclin E1 (Homo sapiens (Human), UniProt P24941)
# Test: CDK2/Cyclin E1 HTRF enzyme activity assay
# Type: biochemical
# Settings: 1 mM ATP
# Method: Assays are conducted in white 384-well polystyrene plates in a final reaction volume of 8 μL. […] HTRF signals are read after 1 hour at room temperature on a PHERAstar FS plate reader (BMG Labtech). Data is analyzed with IDBS XLFit and GraphPad Prism 5.0 software using a three or four parameter dose response curve to determine IC50 for each compound.
row,SMILES,IC50 [nM]
1,"Cn1cnc(S(=O)(=O)N2CCC(Nc3ncc(C(F)(F)F)c(-c4cnn(CC5CC5)c4)n3)CC2)c1 [Example 32, 4-(1-(Cyclopropylmethyl)-1H-pyrazol-4-yl)-N-(1-((1-methyl-1H-imidazol-4-yl)sulfonyl)piperidin-4-yl)-5-(trifluoromethyl)pyrimidin-2-amine]",< 50
2,"Cc1cc(CN2CCN(C)CC2)ccc1-n1cc(-c2nc(NC3CCN(S(=O)(=O)C4CC4)CC3)ncc2C(F)(F)F)cn1 [Example 234, N-(1-(Cyclopropylsulfonyl)piperidin-4-yl)-4-(1-(2-methyl-4-((4-methylpiperazin-1-yl)methyl)phenyl)-1H-pyrazol-4-yl)-5-(trifluoromethyl)pyrimidin-2-amine]",< 50
3,"[2H]C([2H])([2H])NCc1ccc(-n2cc(-c3nc(N[C@H]4CCN(S(=O)(=O)C5CC5)C[C@H]4F)ncc3C(F)(F)F)cn2)c(C)c1 [Example 133, N-((3R,4S)-1-(Cyclopropylsulfonyl)-3-fluoropiperidin-4-yl)-4-(1-(2-methyl-4-(((methyl-d3)amino)methyl)phenyl)-1H-pyrazol-4-yl)-5-(trifluoromethyl)pyrimidin-2-amine]",< 50
4,"Cc1nc(CN2CCN(C)CC2)ccc1-n1cc(-c2nc(N[C@H]3CCN(S(=O)(=O)c4cn(C)cn4)C[C@H]3C)ncc2C(F)(F)F)cn1 [Example 255, N-((3R,4S)-3-methyl-1-((1-methyl-1H-imidazol-4-yl)sulfonyl)piperidin-4-yl)-4-(1-(2-methyl-6-((4-methylpiperazin-1-yl)methyl)pyridin-3-yl)-1H-pyrazol-4-yl)-5-(trifluoromethyl)pyrimidin-2-amine]",< 50
5,"CS(=O)(=O)N1CCC(Nc2ncc(C#N)c(-c3cnn(-c4ccc(CNC5(CO)CC5)cc4Cl)c3)n2)CC1 [Example 159, 4-(1-(2-Chloro-4-(((1-(hydroxymethyl)cyclopropyl)amino)methyl)phenyl)-1H-pyrazol-4-yl)-2-((1-(methylsulfonyl)piperidin-4-yl)amino)pyrimidine-5-carbonitrile]",< 50
6,"Cc1cc(CN2CCN(C)CC2)ccc1-n1cc(-c2nc(N[C@H]3CCN(S(=O)(=O)c4cn(C)cn4)C[C@H]3F)ncc2C(F)(F)F)cn1 [Example 102, N-((3R,4S)-3-Fluoro-1-((1-methyl-1H-imidazol-4-yl)sulfonyl)piperidin-4-yl)-4-(1-(2-methyl-4-((4-methylpiperazin-1-yl)methyl)phenyl)-1H-pyrazol-4-yl)-5-(trifluoromethyl)pyrimidin-2-amine]",< 50
7,"CC(C)(O)Cn1cc(-c2nc(NC3CCN(S(=O)(=O)CCCN4CCOCC45CC5)CC3)ncc2C(F)(F)F)cn1 [Example 73, 1-(4-(2-((1-((3-(7-Oxa-4-azaspiro[2.5]octan-4-yl)propyl)sulfonyl)piperidin-4-yl)amino)-5-(trifluoromethyl)pyrimidin-4-yl)-1H-pyrazol-1-yl)-2-methylpropan-2-ol]",< 50
8,"CS(=O)(=O)N1CCC(Nc2ncc(C(F)(F)F)c(-c3cnn(-c4cc(N)ncc4C(F)(F)F)c3)n2)CC1 [Example 37, 4-(1-(2-Amino-5-(trifluoromethyl)pyridin-4-yl)-1H-pyrazol-4-yl)-N-(1-(methylsulfonyl)piperidin-4-yl)-5-(trifluoromethyl)pyrimidin-2-amine]",< 50
9,"CN1CCN(CCCS(=O)(=O)N2CCC(Nc3ncc(C(F)(F)F)c(-c4cnn(CC(C)(C)O)c4)n3)CC2)CC1=O [Example 70, 4-(3-((4-((4-(1-(2-Hydroxy-2-methylpropyl)-1H-pyrazol-4-yl)-5-(trifluoromethyl)pyrimidin-2-yl)amino)piperidin-1-yl)sulfonyl)propyl)-1-methylpiperazin-2-one]",< 50
10,"CN[C@H]1C[C@@H](n2cc(-c3nc(NC4CCN(S(=O)(=O)c5ccccn5)CC4)ncc3C(F)(F)F)cn2)C1 [Example 49, 4-(1-((1s,3s)-3-(Methylamino)cyclobutyl)-1H-pyrazol-4-yl)-N-(1-(pyridin-2-ylsulfonyl)piperidin-4-yl)-5-(trifluoromethyl)pyrimidin-2-amine]",< 50
11,"CNCc1ccc(-n2cc(-c3nc(NC4CCN(S(=O)(=O)C5CC5)CC4)ncc3C#N)cn2)c(Cl)c1 [Example 114, 4-(1-(2-Chloro-4-((methylamino)methyl)phenyl)-1H-pyrazol-4-yl)-2-((1-(cyclopropylsulfonyl)piperidin-4-yl)amino)pyrimidine-5-carbonitrile]",< 50
12,"CO[C@H]1CCN(CCCS(=O)(=O)N2CCC(Nc3ncc(C(F)(F)F)c(-c4cnn(CC(C)(C)O)c4)n3)CC2)C1 [Example 219, (S)-1-(4-(2-((1-((3-(3-Methoxypyrrolidin-1-yl)propyl)sulfonyl)piperidin-4-yl)amino)-5-(trifluoromethyl)pyrimidin-4-yl)-1H-pyrazol-1-yl)-2-methylpropan-2-ol]",< 50
13,"COC[C@H]1CCN(CCCS(=O)(=O)N2CCC(Nc3ncc(C(F)(F)F)c(-c4cnn(CC(C)(C)O)c4)n3)CC2)C1 [Example 74, (S)-1-(4-(2-((1-((3-(3-(Methoxymethyl)pyrrolidin-1-yl)propyl)sulfonyl)piperidin-4-yl)amino)-5-(trifluoromethyl)pyrimidin-4-yl)-1H-pyrazol-1-yl)-2-methylpropan-2-ol]",< 50
14,"CS(=O)(=O)N1CCC(Nc2ncc(C#N)c(-c3cnn(-c4ccc(CN[C@H]5CC[C@@H](S(C)(=O)=O)CC5)cc4Cl)c3)n2)CC1 [Example 185, 4-(1-(2-Chloro-4-((((cis)-4-(methylsulfonyl)cyclohexyl)amino)methyl)phenyl)-1H-pyrazol-4-yl)-2-((1-(methylsulfonyl)piperidin-4-yl)amino)pyrimidine-5-carbonitrile]",< 50
15,"COC(=O)N[C@H]1CCC[C@@H]1NCc1ccc(-n2cc(-c3nc(NC4CCN(S(C)(=O)=O)CC4)ncc3C#N)cn2)c(Cl)c1 [Example 281, Methyl ((1,S,2S)-2-((3-chloro-4-(4-(5-cyano-2-((1-(methylsulfonyl)piperidin-4-yl)amino)pyrimidin-4-yl)-1H-pyrazol-1-yl)benzyl)amino)cyclopentyl)carbamate]",< 50
16,"Cn1cnc(S(=O)(=O)N2CCC(Nc3ncc(C(F)(F)F)c(-c4cnn(C5CCOCC5)c4)n3)CC2)c1 [Example 23, N-(1-((1-Methyl-1H-imidazol-4-yl)sulfonyl)piperidin-4-yl)-4-(1-(tetrahydro-2H-pyran-4-yl)-1H-pyrazol-4-yl)-5-(trifluoromethyl)pyrimidin-2-amine]",< 50
17,"CC(C)S(=O)(=O)N1CCC(Nc2ncc(C(F)(F)F)c(-c3cnn([C@H]4C[C@@](C)(N)C4)c3)n2)CC1 [Example 45, 4-(1-((1s,3s)-3-Amino-3-methylcyclobutyl)-1H-pyrazol-4-yl)-N-(1-(isopropylsulfonyl)piperidin-4-yl)-5-(trifluoromethyl)pyrimidin-2-amine]",< 50
18,"CCN(CC)CCCCS(=O)(=O)N1CCC(Nc2ncc(C#N)c(-c3cnn(CC(C)(C)O)c3)n2)CC1 [Example 216, 2-((1-((4-(Diethylamino)butyl)sulfonyl)piperidin-4-yl)amino)-4-(1-(2-hydroxy-2-methylpropyl)-1H-pyrazol-4-yl)pyrimidine-5-carbonitrile]",< 50
19,"Cc1c(-n2cc(-c3nc(NC4CCN(S(=O)(=O)c5cn(C)cn5)CC4)ncc3C(F)(F)F)cn2)ccnc1N [Example 35, 4-(1-(2-Amino-3-methylpyridin-4-yl)-1H-pyrazol-4-yl)-N-(1-((1-methyl-1H-imidazol-4-yl)sulfonyl)piperidin-4-yl)-5-(trifluoromethyl)pyrimidin-2-amine]",< 50
20,"CCN(CC)CCCS(=O)(=O)N1CCC(Nc2ncc(C(F)(F)F)c(-c3cnn(CC(C)(C)O)c3)n2)CC1 [Example 64, 1-(4-(2-((1-((3-(Diethylamino)propyl)sulfonyl)piperidin-4-yl)amino)-5-(trifluoromethyl)pyrimidin-4-yl)-1H-pyrazol-1-yl)-2-methylpropan-2-ol]",< 50
21,"CN1C[C@@H]2C[C@H]1CN2CCCS(=O)(=O)N1CC[C@H](Nc2ncc(C(F)(F)F)c(-c3cnn(CC(C)(C)O)c3)n2)[C@H](F)C1 [Example 211, 1-(4-(2-(((3R,4S)-3-Fluoro-1-((3-((1S,4S)-5-methyl-2,5-diazabicyclo[2.2.1]heptan-2-yl)propyl)sulfonyl)piperidin-4-yl)amino)-5-(trifluoromethyl)pyrimidin-4-yl)-1H-pyrazol-1-yl)-2-methylpropan-2-ol]",< 50
22,"CC(C)(O)Cn1cc(-c2nc(NC3CCN(S(=O)(=O)c4ccccn4)CC3)ncc2C#N)cn1 [Example 55, 4-(1-(2-Hydroxy-2-methylpropyl)-1H-pyrazol-4-yl)-2-((1-(pyridin-2-ylsulfonyl)piperidin-4-yl)amino)pyrimidine-5-carbonitrile]",< 50
23,"CC(C)(O)Cn1cc(-c2nc(NC3CCN(S(C)(=O)=O)CC3)ncc2C(F)(F)F)cn1 [Example 52, 2-Methyl-1-(4-(2-((1-(methylsulfonyl)piperidin-4-yl)amino)-5-(trifluoromethyl)pyrimidin-4-yl)-1H-pyrazol-1-yl)propan-2-ol]",< 50
24,"CN1CCN(CCCS(=O)(=O)N2CC[C@H](Nc3ncc(C(F)(F)F)c(-c4cnn(CC(C)(C)O)c4)n3)[C@H](F)C2)CC1 [Example 209, 1-(4-(2-(((3R,4S)-3-Fluoro-1-((3-(4-methylpiperazin-1-yl)propyl)sulfonyl)piperidin-4-yl)amino)-5-(trifluoromethyl)pyrimidin-4-yl)-1H-pyrazol-1-yl)-2-methylpropan-2-ol]",< 50
25,"Cc1nc(CNC(C)(C)C(N)=O)ccc1-n1cc(-c2nc(NC3CCN(S(C)(=O)=O)CC3)ncc2C#N)cn1 [Example 264, 2-(((5-(4-(5-Cyano-2-((1-(methylsulfonyl)piperidin-4-yl)amino)pyrimidin-4-yl)-1H-pyrazol-1-yl)-6-methylpyridin-2-yl)methyl)amino)-2-methylpropanamide]",< 50
